Test results taken from ChEMBL document CHEMBL3856265, “Conditional changes enhanced production of bioactive metabolites of marine derived fungus Eurotium rubrum” (Bioorg Med Chem Lett, 2016).

Test: Inhibition of melanogenesis in theophylline-stimulated mouse B16-4A5 cells assessed as reduction in melanin level incubated for 72 hrs
Format: functional, cell-based
Settings: B16-4A5, 72 h

| SMILES | IC50 |
| --- | --- |
| C=CC(C)(C)c1[nH]c2c(CC=C(C)C)cc(CC=C(C)C)cc2c1C[C@@H]1NC(=O)[C@H](C)NC1=O [ECHINULIN] | 68 µM |
| OC[C@H]1O[C@H](Oc2ccc(O)cc2)[C@H](O)[C@@H](O)[C@@H]1O | 611 µM |
